Source: the supplement of paper PMC10307832

What was measured:
Assay in all cases: relative viability (nuclei count vs DMSO), 5 days (fraction); higher = more cells survive
[1] = compound: C1CSC2=C(C(=O)N1)SC3=C2C=C(C=C3)O [kb NB 142-70] + O=C(CCCCCCC(=O)Nc1ccccc1)NO [Vorinostat] (partner 1 µM)
Method in brief: (§1)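 After 5 days of treatment, lung cancer cells in 1536-well plates were fixed and stained in a single step (final 0.05% Triton X-100, 1% formaldehyde, 1 ug/ml Hoechst) and their nuclei counted on 4× images. Treatment had been applied by pin tool the day after seeding as one drug alone or as a fixed anchor-drug dose with five library-drug doses (not always all listed) in √10 steps. Relative viability is the nuclei count of treated wells divided by that of vehicle wells, and values are medians of duplicate plates.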

[2] = compound: NCC(=O)Nc1ccc(-n2nc(C(F)(F)F)cc2-c2ccc3c(ccc4ccccc43)c2)cc1 + O=C(c1cc(Cc2n[nH]c(=O)c3ccccc23)ccc1F)N1CCN(C(=O)C2CC2)CC1 [Olaparib] (partner 8 µM)
Method in brief: as §1

[3] = compound: NCC(=O)Nc1ccc(-n2nc(C(F)(F)F)cc2-c2ccc3c(ccc4ccccc43)c2)cc1 + CCNC(=O)c1noc(-c2cc(C(C)C)c(O)cc2O)c1-c1ccc(CN2CCOCC2)cc1 [Luminespib] (partner 0.01 µM)
Method in brief: as §1

[4] = compound: NCC(=O)Nc1ccc(-n2nc(C(F)(F)F)cc2-c2ccc3c(ccc4ccccc43)c2)cc1 + C[C@]1(O)C[C@@H](c2nc(-c3ccc4ccc(-c5ccccc5)nc4c3)c3c(N)nccn32)C1 [Linsitinib] (partner 1 µM)
Method in brief: as §1

Cell Line	relative viability ([1]; first compound 0.1 µM)	relative viability ([1]; first compound 1 µM)	relative viability ([1]; first compound 3.162 µM)	relative viability ([2]; first compound 0.02 µM)	relative viability ([2]; first compound 0.06325 µM)	relative viability ([2]; first compound 0.2 µM)	relative viability ([2]; first compound 0.6325 µM)	relative viability ([2]; first compound 2 µM)	relative viability ([3]; first compound 0.02 µM)	relative viability ([3]; first compound 0.06325 µM)	relative viability ([3]; first compound 0.2 µM)	relative viability ([3]; first compound 0.6325 µM)	relative viability ([3]; first compound 2 µM)	relative viability ([4]; first compound 0.02 µM)	relative viability ([4]; first compound 0.06325 µM)	relative viability ([4]; first compound 0.6325 µM)	relative viability ([4]; first compound 2 µM)	relative viability ([4]; first compound 0.2 µM)
LCLC-97TM1	0.82	0.773	0.515	0.538	0.421	0.317	0.409	0.364	0.869	0.76	0.689	0.8	0.831	0.146	0.185	0.198	0.183	
NCI-H727	1.35	1.18	1.24	0.504	0.801	0.754	0.666	0.583	0.325	0.352	0.322	0.32	0.401	0.297	0.275	0.352	0.493	0.377
NCI-H1355	0.605	0.643	0.657	0.722	0.785	0.729	0.757	0.738	0.668	0.765	0.72	0.791	0.752	0.769	0.855	0.867	0.82	0.849
HOP-62	0.69	0.713	0.579	0.284	0.361	0.381	0.408	0.431	0.887	0.911	0.862	0.9	0.951	1.14	0.901	1.03	1.05	0.854
NCI-H2085	0.772	0.857	0.483	0.853	0.802	0.801	0.829	0.812	0.537	0.473	0.466	0.445	0.472	0.964	0.943	1.03	0.932	1.03
